65 molecules from ChEMBL document CHEMBL3727358, “Inhibitors of inducible form of 6-phosphofructose-2-kinase” (2014) can be followed below.

Where only a bound is given, the exact number is not on record here.

In this test the target is 6-phosphofructo-2-kinase/fructose-2,6-bisphosphatase 3 (Homo sapiens, UniProt Q16875). As to the kind of experiment: Inhibition of iPFK2 (unknown origin) assessed as reduction in enzyme-mediated fructose-6-phosphate phosphorylation by measuring ATP consumption incubated for 3 hrs by luciferase-luciferin-coupled chemiluminescence assay.
Chain of 6-phosphofructo-2-kinase/fructose-2,6-bisphosphatase 3 (Q16875 whole entry): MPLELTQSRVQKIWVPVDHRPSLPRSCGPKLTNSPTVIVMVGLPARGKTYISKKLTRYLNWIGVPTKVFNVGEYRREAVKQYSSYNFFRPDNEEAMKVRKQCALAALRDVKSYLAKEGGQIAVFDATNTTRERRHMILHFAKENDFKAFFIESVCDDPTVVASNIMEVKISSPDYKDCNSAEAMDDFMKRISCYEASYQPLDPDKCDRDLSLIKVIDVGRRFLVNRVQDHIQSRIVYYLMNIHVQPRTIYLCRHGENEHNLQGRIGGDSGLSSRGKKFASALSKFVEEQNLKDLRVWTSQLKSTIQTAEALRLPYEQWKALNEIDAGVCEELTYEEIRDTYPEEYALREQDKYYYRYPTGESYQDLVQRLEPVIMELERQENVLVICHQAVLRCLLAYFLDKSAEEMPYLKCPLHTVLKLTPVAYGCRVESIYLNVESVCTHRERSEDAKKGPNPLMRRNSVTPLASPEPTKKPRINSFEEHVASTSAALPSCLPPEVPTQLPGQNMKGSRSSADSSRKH
With `COc1cccc([C@H](C)Nc2cc(-c3ccc4ncoc4c3)nc(C)n2)c1`, the 50% inhibitory concentration (IC50) (as a rule, the midpoint of a concentration-inhibition curve) is above 1000 nM. Consider `COc1cccc([C@H](C)Nc2cc(-c3ccc4ncn(C)c4c3)nc(C)n2)c1`, for which the IC50 was above 1000 nM.

For `COc1cccc(-c2cc(NC3CCCc4ccccc43)nc(C)n2)c1` (stereo not given), the IC50 was above 1000 nM. For the molecule `Cc1nc(N[C@@H]2CCCc3ccccc32)cc(-c2ccc3[nH]ncc3c2)n1`, the IC50 is above 1000 nM. As for `Cc1nc(N[C@@H]2CCCc3ccccc32)cc(-c2ccc(F)cc2)n1`, the IC50 was found to be 500 nM. With `COc1cccc(-c2cc(NC(C)c3cccc(S(=O)(=O)NCC(=O)O)c3)nc(C)n2)c1` (stereo not given), the IC50 is above 1000 nM. As to `COc1cccc([C@H](C)Nc2cc(-c3cc(OC)c(OC)c(OC)c3)nc(C)n2)c1`, the IC50 is above 1000 nM.

Take `CCOC(=O)Cc1coc2ccc(-c3cc(N[C@@H]4CCCc5ccccc54)nc(C)n3)cc12`: the IC50 was above 1000 nM. For `Cc1nc(N[C@@H]2CCCc3ccccc32)cc(-c2cccc(Cl)c2)n1`, the IC50 was 500 nM. As to `COc1cccc([C@H](C)Nc2cc(-c3ccccc3F)nc(C)n2)c1`, the IC50 was above 1000 nM. Regarding `Cc1nc(N[C@@H]2CCCc3ccccc32)cc(-c2cccc3cc[nH]c23)n1`, the IC50 is above 1000 nM.

Consider `Cc1nc(N[C@@H]2CCCc3ccccc32)cc(-c2cccc(C(N)=O)c2)n1`, for which the IC50 is above 1000 nM. For the molecule `Cc1nc(N[C@@H]2CCCc3ccccc32)cc(-c2ccc(OC(F)(F)F)cc2)n1`, the IC50 is above 1000 nM. In the case of `COc1cccc([C@@H](C)Nc2cc(-c3ccc4ncsc4c3)nc(C)n2)c1`, the IC50 is above 1000 nM. For `Cc1nc(N[C@@H]2CCCc3ccccc32)cc(-c2cccc(OC(F)(F)F)c2)n1` the value was above 1000 nM; for `Cc1nc(N[C@@H]2CCCc3ccccc32)cc(-c2cccc3c2ccn3C)n1`, above 1000 nM. With `COCc1cccc(-c2cc(N[C@@H]3CCCc4ccccc43)nc(C)n2)c1`, the IC50 is above 1000 nM.

As for `COc1cccc(-c2cc(NC(CCO)c3cccc(OC)c3)nc(C)n2)c1` (stereo not given), the IC50 was above 1000 nM. Regarding `Cc1nc(N[C@@H]2CCCc3ccccc32)cc(-c2cccc3[nH]ccc23)n1`, the IC50 was above 1000 nM. For `Cc1nc(NC(C)c2cccc(-c3cnn(C)c3)c2)cc(-c2ccc3c(c2)N(C)CCO3)n1` (stereo not given) the value was 500 nM. The same measure for `CCOC(=O)CC(Nc1cc(-c2cccc(OC)c2)nc(C)n1)c1cccc(OC)c1` (stereo not given): above 1000 nM. For `COc1cccc([C@H](C)Nc2cc(-c3cc(OC)ccc3Cl)nc(C)n2)c1` the value was above 1000 nM. With `Cc1nc(N[C@@H]2CCCc3ccccc32)cc(-c2ccc3c(c2)N(CCO)CC3)n1`, the concentration for half-maximal inhibition (IC50) is above 1000 nM. For `COc1cccc([C@H](C)Nc2cc(-c3cccc(N(C)C)c3)nc(C)n2)c1` the value was above 1000 nM. Consider `COc1cccc([C@H](C)Nc2cc(-c3ccc4cc[nH]c4c3)nc(C)n2)c1`, for which the IC50 is above 1000 nM.

On to `COc1cccc(-c2cc(NC(C)c3cccc(NCC(=O)O)c3)nc(C)n2)c1` (stereo not given), for which the IC50 was above 1000 nM. The same measure for `CNC(=O)c1cc(-c2cc(N[C@@H]3CCCc4ccccc43)nc(C)n2)ccc1Cl`: above 1000 nM; for `Cc1nc(N[C@@H]2CCCc3ccccc32)cc(-c2ccc(N(C)C)cc2)n1`: above 1000 nM.

As to `Cc1nc(N[C@@H]2CCCc3ccccc32)cc(-c2ccc3nc[nH]c3c2)n1`, the IC50 is above 1000 nM.

Regarding `CC(=O)N1CCOc2ccc(-c3cc(N[C@@H]4CCCc5ccccc54)nc(C)n3)cc21`, the IC50 was above 1000 nM. The same measure for `COc1cccc([C@H](C)Nc2cc(N[C@@H]3CCCc4ccccc43)nc(C)n2)c1`: above 1000 nM. As to `COc1cccc([C@H](C)Nc2cc(-c3ccc(F)cc3)nc(C)n2)c1`, the IC50 was above 1000 nM. Regarding `COc1cccc([C@H](C)Nc2cc(-c3cccc4[nH]ccc34)nc(C)n2)c1`, the IC50 was above 1000 nM.

Turning to `Cc1nc(NC2CCOc3ccc([N+](=O)[O-])cc32)cc(-c2ccc3ncsc3c2)n1` (stereo not given), the IC50 was above 1000 nM. For `CCc1coc2ccc(-c3cc(NC(C)c4cccc(-c5cnn(C)c5)c4)nc(C)n3)cc12` (stereo not given) the value was above 1000 nM; for `COC(=O)CNc1cccc(CNc2cc(-c3cccc(OC)c3)nc(C)n2)c1`, above 1000 nM; for `CNc1ccc(-c2cc(N[C@@H]3CCCc4ccccc43)nc(C)n2)cc1`, 500 nM. In the case of `COc1cccc([C@H](C)Nc2cc(-c3ccc(N(C)C)cc3)nc(C)n2)c1`, the IC50 is above 1000 nM. With `CC(=O)Nc1ccc2c(c1)C(Nc1cc(-c3ccc4ncsc4c3)nc(C)n1)CCO2` (stereo not given), the IC50 is above 1000 nM. On to `CCC(Nc1cc(-c2cccc(OC)c2)nc(C)n1)c1cccc(OC)c1` (stereo not given), for which the IC50 is above 1000 nM.

As to `COc1cccc([C@H](C)Nc2cc(-c3cccc(Cl)c3)nc(C)n2)c1`, the IC50 is 500 nM. Regarding `Cc1nc(N[C@@H]2CCCc3ccccc32)cc(-c2cccc(N)c2)n1`, the IC50 is above 1000 nM. With `CCOC(=O)CCNC(=O)CC(Nc1cc(-c2cccc(OC)c2)nc(C)n1)c1cccc(OC)c1` (stereo not given), the IC50 was above 1000 nM. With `Cc1nc(N[C@@H]2CCCc3ccccc32)cc(-c2ccccc2F)n1`, the IC50 was above 1000 nM. Turning to `Cc1nc(N[C@@H]2CCCc3ccccc32)cc(-c2ccccc2Cl)n1`, the IC50 is above 1000 nM. For `Cc1nc(N[C@@H]2CCCc3ccccc32)cc(-c2ccc3c(c2)NCC3)n1` the value was above 1000 nM. On to `COC(=O)c1cc(-c2cc(N[C@@H]3CCCc4ccccc43)nc(C)n2)ccc1Cl`, for which the IC50 is 500 nM. As to `COc1cccc(-c2cc(NC(CC(=O)NCCCN(C)C)c3cccc(OC)c3)nc(C)n2)c1` (stereo not given), the IC50 was above 1000 nM. Take `CNC(=O)CNc1cc(-c2cc(N[C@@H]3CCCc4ccccc43)nc(C)n2)ccc1Cl`: the IC50 is above 1000 nM.

On to `COC(=O)CN(C(=O)OC(C)(C)C)S(=O)(=O)c1cccc(C(C)Nc2cc(-c3cccc(OC)c3)nc(C)n2)c1` (stereo not given), for which the IC50 was above 1000 nM. The same measure for `CCn1cnc2ccc(-c3cc(N[C@@H]4CCCc5ccccc54)nc(C)n3)cc21`: above 1000 nM.

For the molecule `COc1cccc(C(CCC#N)Nc2cc(-c3ccc4ncsc4c3)nc(C)n2)c1` (stereo not given), the IC50 was above 1000 nM.

Regarding `Cc1nc(N[C@@H]2CCCc3ccccc32)cc(-c2ccc(N)cc2)n1`, the IC50 is above 1000 nM. Regarding `COc1cccc([C@H](C)Nc2cc(-c3cccc4cc[nH]c34)nc(C)n2)c1`, the IC50 is above 1000 nM.

Regarding `COc1cccc([C@H](C)Nc2cc(-c3ccc4[nH]ncc4c3)nc(C)n2)c1`, the IC50 is above 1000 nM.

As for `Cc1nc(N[C@@H]2CCCc3ccccc32)cc(-c2ccc3c(c2)NCCO3)n1`, the concentration for half-maximal inhibition (IC50) stood at 500 nM. For `COc1cccc(-c2cc(N[C@H]3CCCc4ccccc43)nc(C)n2)c1`, the IC50 is above 1000 nM. For `Cc1nc(N[C@@H]2CCCc3ccccc32)cc(-c2ccc3c(c2)OC(F)(F)O3)n1`, the IC50 is above 1000 nM. For `COc1cccc(-c2cc(Nc3cccc4ccccc34)nc(C)n2)c1` the value was above 1000 nM. For the molecule `Cc1nc(N[C@H]2CCCc3ccccc32)cc(-c2ccc3ncsc3c2)n1`, the IC50 came out at 500 nM. For `COc1cccc([C@H](C)Nc2cc(-c3ccccc3C)nc(C)n2)c1` the value was above 1000 nM; for `Cc1nc(N[C@@H]2CCCc3ccccc32)cc(-c2ccc3c(c2)N(CCO)CCO3)n1`, above 1000 nM.

With `Cc1nc(N[C@@H]2CCCc3ccccc32)cc(-c2ccc3cn[nH]c3c2)n1`, the IC50 is above 1000 nM. Consider `Cc1nc(N[C@@H]2CCCc3ccccc32)cc(-c2ccc3occ(CC(=O)NCCO)c3c2)n1`, for which the IC50 is above 1000 nM. Turning to `COc1cccc([C@H](C)Nc2cc(-c3ccccc3Cl)nc(C)n2)c1`, the IC50 was above 1000 nM.
